Measured values taken from ChEMBL document CHEMBL4130624, “Optimization of 1,4-Oxazine β-Secretase 1 (BACE1) Inhibitors Toward a Clinical Candidate” (J Med Chem, 2018).
≈ marks a conversion by molar mass, not a printed value.

What was measured:
[1] = Clearance in Swiss mouse at 2.5 mg/kg, iv administered as bolus dose by LC-MS/MS analysis; assay type: ADME, organism-based; details: in vivo
[2] = biological target: Cytochrome P450 3A4 (Homo sapiens, UniProt P08684); test: Time dependent inhibition of recombinant human CYP3A4 by fluorescence-based assay; assay type: ADME; details: recombinant enzyme
[3] = Half life in Swiss mouse at 2.5 mg/kg, iv administered as bolus dose by LC-MS/MS analysis; assay type: ADME, organism-based; details: in vivo
[4] = Fraction unbound in dog plasma at 5 uM after 4.5 hrs by HPLC-MS/MS method based rapid equilibrium dialysis; assay type: ADME, cell-free, Canis lupus familiaris
[5] = system: Canis familiaris; test: Toxicity in Beagle dog assessed as induction of appearance changes at 0.63 to 20 mg/kg, po qd for 6 days; assay type: organism-based, Canis lupus familiaris; details: in vivo, 144 h
[6] = Fraction unbound in mouse plasma at 5 uM after 4.5 hrs by HPLC-MS/MS method based rapid equilibrium dialysis; assay type: ADME, cell-free
[7] = system: Canis familiaris; test: Toxicity in beagle dog assessed as induction of ataxia at 70 to 250 mg/kg/day, po qd for 1 week; assay type: organism-based, Canis lupus familiaris; details: in vivo, 168 h
[8] = system: Canis familiaris; test: Toxicity in male beagle dog assessed as reduction in RBC parameters at 250 mg/kg/day, po qd for 1 month; assay type: organism-based, Canis lupus familiaris; details: in vivo
[9] = Toxicity in male beagle dog at 20 to 250 mg/kg/day, po qd for 1 month; assay type: organism-based, Canis lupus familiaris; details: in vivo
[10] = system: Canis familiaris; test: Toxicity in Beagle dog assessed as drug tolerability at 0.63 to 20 mg/kg, po qd for 6 days; assay type: organism-based, Canis lupus familiaris; details: in vivo, 144 h
[11] = system: Salmonella typhimurium; test: Mutagenicity in Salmonella typhimurium TAmix up to 500 ug/ml in presence of rat liver S9 fraction by Ames 2 assay; assay type: toxicity, organism-based; details: salmonella enterica subsp. enterica serovar typhimurium
[12] = Ratio of drug level in liver to plasma of Sprague-Dawley rat at 10 mg/kg, po; assay type: ADME, organism-based
[13] = Drug metabolism in mouse liver microsomes at 1 uM after 15 mins in presence of NADPH by HPLC-MS/MS analysis; assay type: ADME, microsome; details: read-out: Drug metabolism
[14] = system: Rattus norvegicus; test: Toxicity in Sprague-Dawley rat assessed as induction of pigmentation at 225 mg/kg/day, po administered via gavage for 1 month; assay type: organism-based; details: in vivo
[15] = biological target: T1, Beta-secretase 1 (Homo sapiens, UniProt P56817); test: Inhibition of BACE1 in human SKNBE2 cells transfected with APP695 protein assessed as reduction in amyloid beta (1 to 42) levels after 18 hrs by sandwich alphalisa assay; assay type: cell-based
[16] = biological target: Kappa-type opioid receptor (Cavia porcellus) (UniProt P41144); test: Inhibition of Dunkin Hartley guinea pig kappa-type opioid receptor at 10 uM after 5 mins
[17] = system: Canis familiaris; test: Toxicity in Beagle dog assessed as drug tolerability at 0.63 to 20 mg/kg, po qd for 1 day; assay type: organism-based, Canis lupus familiaris; details: in vivo, 24 h
[18] = system: Canis familiaris; test: Toxicity in Beagle dog assessed as induction of behavioural changes at 0.63 to 20 mg/kg, po qd for 1 day; assay type: organism-based, Canis lupus familiaris; details: in vivo, 24 h
[19] = system: Rattus norvegicus; test: Toxicity in Sprague-Dawley rat assessed as drug tolerability at 25 to 75 mg/kg/day, po measured after 1 month repeated dosing; assay type: organism-based; details: in vivo
[20] = system: Salmonella typhimurium; test: Mutagenicity in Salmonella typhimurium TA98 up to 500 ug/ml in presence of rat liver S9 fraction by Ames 2 assay; assay type: toxicity, organism-based; details: salmonella enterica subsp. enterica serovar typhimurium
[21] = system: Rattus norvegicus; test: Toxicity in Sprague-Dawley rat assessed as phospholipidosis at 225 mg/kg/day, po administered via gavage for 1 month followed by 1 month recovery period; assay type: organism-based; details: in vivo
[22] = system: Canis familiaris; test: Toxicity in beagle dog assessed as induction of reduction in general activity at 70 to 250 mg/kg/day, po qd for 1 week; assay type: organism-based, Canis lupus familiaris; details: in vivo, 168 h
[23] = system: Canis familiaris; test: Toxicity in male beagle dog assessed as induction of pigmentation at 20 to 250 mg/kg/day, po qd for 1 month; assay type: organism-based, Canis lupus familiaris; details: in vivo
[24] = system: Canis familiaris; test: Systemic clearance in Beagle dog at 1 mg/kg, iv administered as bolus dose by LC-MS/MS analysis relative to liver blood flow; assay type: ADME, organism-based, Canis lupus familiaris; details: in vivo
[25] = Cmax in female Sprague-Dawley rat at 75 mg/kg, po measured after 1 month repeated dosing by LC-MS/MS analysis; assay type: ADME, organism-based; design: dose 75 mg/kg, route oral; details: in vivo
[26] = Tmax in Beagle dog at 10 mg/kg, po administered as bolus dose by LC-MS/MS analysis; assay type: ADME, organism-based, Canis lupus familiaris; details: in vivo
[27] = system: HepG2; test: Cytotoxicity against human HepG2 cells assessed as effect on cell health indicators after 72 hrs by automated fluorescence microscopy based high content screening based assay; assay type: ADME; details: hepg2, 72 h
[28] = biological target: T1, Beta-secretase 1; test: Inhibition of BACE1 (1 to 454 residues) (unknown origin) using APP derived polypeptide harboring Lys-Met/Asn-Leu mutation as substrate by FRET assay
[29] = system: Canis familiaris; test: Antialzheimer activity in po dosed Beagle dog assessed as reduction in amyloid beta (1 to 40) levels measured after 1 hr post dose by ELISA; assay type: functional, organism-based, Canis lupus familiaris
[30] = AUC (0 to 24 hrs) in female Sprague-Dawley rat at 75 mg/kg, po measured after 1 month repeated dosing by LC-MS/MS analysis; assay type: ADME, organism-based; design: time < 24 hr, dose 75 mg/kg, route oral; details: in vivo
[31] = AUC (0 to infinity) in Swiss mouse at 10 mg/kg, po administered as bolus dose by LC-MS/MS analysis; assay type: ADME, organism-based; design: dose 10 mg/kg, time infinity, route oral; details: in vivo
[32] = Fraction unbound in rat brain at 5 uM after 5 hrs by HPLC-MS/MS method based rapid equilibrium dialysis; assay type: ADME, tissue-based
[33] = Oral bioavailability in Sprague-Dawley rat at 10 mg/kg administered as bolus dose by LC-MS/MS analysis; assay type: ADME, organism-based; details: in vivo
[34] = Volume of distribution at steady state in Sprague-Dawley rat at 2.5 mg/kg, iv administered as bolus dose by LC-MS/MS analysis; assay type: ADME, organism-based; details: in vivo, read-out: Vdss
[35] = system: Mus musculus; test: Systemic clearance in Swiss mouse at 2.5 mg/kg, iv administered as bolus dose by LC-MS/MS analysis relative to liver blood flow; assay type: ADME, organism-based; details: in vivo
[36] = Cmax in female Beagle dog at 70 mg/kg, po measured after 1 month repeated dosing by LC-MS/MS analysis; details: in vivo
[37] = Cmax in male Sprague-Dawley rat at 75 mg/kg, po measured after 1 month repeated dosing by LC-MS/MS analysis; assay type: ADME, organism-based; design: dose 75 mg/kg, route oral; details: in vivo
[38] = Half life in Sprague-Dawley rat at 2.5 mg/kg, iv administered as bolus dose by LC-MS/MS analysis; assay type: ADME, organism-based; details: in vivo
[39] = system: Cavia porcellus; test: Cardiotoxicity in anesthetized guinea pigs assessed as QTcB prolongation at plasma concentration of 11500 ng/ml dosed up to 10 mg/kg, iv administered over a period of 5 min at 15 min interval by ECG analysis (reference value: 7%); assay type: toxicity, organism-based; details: guinea pig, in vivo
[40] = system: Rattus norvegicus; test: Toxicity in female Sprague-Dawley rat assessed as increase in formation of foamy macrophages in lungs at 75 mg/kg/day, po administered via gavage for 1 month; assay type: organism-based; details: in vivo
[41] = AUC (0 to 24 hrs) in female Beagle dog at 70 mg/kg, po measured after 1 month repeated dosing by LC-MS/MS analysis; details: in vivo
[42] = Cmax in Sprague-Dawley rat at 10 mg/kg, po administered as bolus dose by LC-MS/MS analysis; assay type: ADME, organism-based; design: dose 10 mg/kg, route oral; details: in vivo

T1 sequence (P56817 whole entry): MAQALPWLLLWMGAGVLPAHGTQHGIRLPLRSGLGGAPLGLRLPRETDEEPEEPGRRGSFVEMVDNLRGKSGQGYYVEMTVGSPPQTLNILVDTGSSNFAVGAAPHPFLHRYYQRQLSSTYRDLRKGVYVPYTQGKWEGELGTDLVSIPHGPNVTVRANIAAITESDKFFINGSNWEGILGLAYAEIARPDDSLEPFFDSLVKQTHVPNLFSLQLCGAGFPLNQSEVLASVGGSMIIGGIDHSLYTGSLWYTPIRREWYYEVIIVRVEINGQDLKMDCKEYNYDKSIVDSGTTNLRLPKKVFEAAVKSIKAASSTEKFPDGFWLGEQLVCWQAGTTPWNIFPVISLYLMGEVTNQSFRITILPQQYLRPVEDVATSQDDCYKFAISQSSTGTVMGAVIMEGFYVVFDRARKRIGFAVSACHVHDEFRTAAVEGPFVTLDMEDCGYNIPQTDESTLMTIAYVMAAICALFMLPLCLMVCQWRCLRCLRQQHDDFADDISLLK
Sequence of Kappa-type opioid receptor (Cavia porcellus) (P41144 whole entry): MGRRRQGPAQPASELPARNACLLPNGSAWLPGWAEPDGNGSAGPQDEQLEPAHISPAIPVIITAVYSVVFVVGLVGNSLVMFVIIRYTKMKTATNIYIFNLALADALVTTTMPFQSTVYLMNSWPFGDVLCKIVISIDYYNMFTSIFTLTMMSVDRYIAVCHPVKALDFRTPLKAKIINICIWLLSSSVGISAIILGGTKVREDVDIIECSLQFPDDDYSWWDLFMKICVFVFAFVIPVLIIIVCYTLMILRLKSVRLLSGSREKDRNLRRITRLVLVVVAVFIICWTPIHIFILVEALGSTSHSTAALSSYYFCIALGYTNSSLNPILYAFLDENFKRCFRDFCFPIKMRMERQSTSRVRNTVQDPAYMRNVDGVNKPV
Sequence of Cytochrome P450 3A4 (P08684 whole entry): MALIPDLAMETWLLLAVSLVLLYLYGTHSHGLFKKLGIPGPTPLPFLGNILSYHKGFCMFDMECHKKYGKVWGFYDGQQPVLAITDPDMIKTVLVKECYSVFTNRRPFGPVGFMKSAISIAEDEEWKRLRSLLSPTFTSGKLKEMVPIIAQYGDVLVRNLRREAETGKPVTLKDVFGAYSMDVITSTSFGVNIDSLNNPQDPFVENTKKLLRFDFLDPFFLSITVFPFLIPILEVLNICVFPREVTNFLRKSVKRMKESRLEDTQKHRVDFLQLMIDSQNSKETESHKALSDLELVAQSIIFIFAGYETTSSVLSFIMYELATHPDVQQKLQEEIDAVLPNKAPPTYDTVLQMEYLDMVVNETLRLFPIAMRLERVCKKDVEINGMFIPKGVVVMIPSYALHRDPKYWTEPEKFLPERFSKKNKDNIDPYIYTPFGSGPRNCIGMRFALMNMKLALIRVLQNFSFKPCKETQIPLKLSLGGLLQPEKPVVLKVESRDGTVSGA

C[C@]1(c2cc(NC(=O)c3ccc(C#N)cn3)ccc2F)N=C(N)CO[C@H]1C(F)(F)F
clearance [1]: 69 mL/min/kg
TDI [2]: Not Active
half-life [3]: 1.4 h
fraction unbound at 4.5 h, 5 µM [4]: 0.26
Activity [5]: Non-Toxic
fraction unbound at 4.5 h, 5 µM [6]: 0.23
Activity [7]: Toxic
Activity [8]: Toxic
NOAEL at 1 month [9]: 70 mg/kg/day
Activity [10]: Non-Toxic
Activity [11]: Non-Toxic
Kp [12]: 31
metabolised at 0.25 h, 1 µM [13]: 13%
Activity [14]: Non-Toxic
IC50 [15]: 0.006 µM
inhibition [16]: 76%
Activity [17]: Non-Toxic
Activity [18]: Non-Toxic
Activity [19]: Non-Toxic
Activity [20]: Non-Toxic
Activity [21]: Non-Toxic
Activity [22]: Toxic
Activity [23]: Non-Toxic
CL [24]: 25%
Cmax at 1 month [25]: 2720 ng/mL
Tmax [26]: 2 h
MTC [27]: 31.5 µM
IC50 [28]: 0.0222 µM
fEC50 [29]: 0.065 µM
Activity ([29]; Canis lupus familiaris): Dose-dependent effect
EC50 ([29]; Canis lupus familiaris, Beagle, 1 h): 0.105 µg/mL (≈ 0.249 µM)
AUC at 24 h [30]: 38800 ng·h/mL
AUC(0-inf) [31]: 1330 ng·h/mL
fraction unbound at 5 h, 5 µM [32]: 0.03
bioavailability [33]: 36%
Vd [34]: 11 L/kg
CL [35]: 50%
Cmax at 1 month [36]: 2080 ng/mL
Cmax at 1 month [37]: 1490 ng/mL
half-life [38]: 3.9 h
Activity [39]: 9%
Activity [40]: Toxic
AUC at 24 h [41]: 23100 ng·h/mL
Cmax [42]: 160 nM
